# Measured values: US10233180B2, “Substituted nitrogen-containing heterocyclic derivatives, pharmaceutical compositions comprising the same and applications of antitumor thereof” (ZHEJIANG UNIVERSITY, priority 2014, dated 2019)
# Legend:
# Akt1 = target: T1, Akt1 (Homo sapiens, UniProt P31749); assay: AKT1/PKBα KinEASE FP Fluorescein Green Assay (fluorescence polarization kinase kit); format: biochemical; conditions: 1 h reaction, read-out: Inhibitory activities against Akt1 (IC50)
# T1 construct: purchased 32-021
# Summary of the method: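 FP competition kinase assay: compounds (50 μM stock) with STK Substrate 3 and ATP, 1 h reaction at room temperature; stopped with stop/antibody mix, 4 h at room temperature, then polarization read. Inhibition derived from polarization values; IC50 calculated; triplicate wells.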
# [1] = test system: human colon cancer cell strain HCT-116; assay: MTT assay, inhibition of tumor cell growth in vitro, 72 h; format: cell-based; conditions: Homo sapiens, HCT-116, MTT, read-out: Antitumor proliferative activities of tumor cell (IC50, μM) HCT-116 (converted)
# Summary of the method: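 Cells in RPMI 1640 with FBS, 4000 cells/well, exposed 72 h at 37 °C, 5% CO2 to final 50, 10, 2, 0.4 and 0.08 μM; 1% DMSO blank. MTT OD gives % inhibition versus control; IC50 derived by Bliss method.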
# [2] = test system: Human ovarian cancer cell strain OVCAR-8; assay: as above; format: cell-based; conditions: Homo sapiens, OVCAR-8, MTT, read-out: Antitumor proliferative activities of tumor cell (IC50, μM) OVCAR-8
# Summary of the method: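 OVCAR8 cells in RPMI 1640 plus FBS were seeded at 4000 cells/well and exposed for 72 h at 37 °C to compound at 50, 10, 2, 0.4 and 0.08 μM final, with 1% DMSO as blank. Inhibition was calculated from OD relative to control, and IC50 was derived by the Bliss method.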
# T1 sequence (P31749 whole entry): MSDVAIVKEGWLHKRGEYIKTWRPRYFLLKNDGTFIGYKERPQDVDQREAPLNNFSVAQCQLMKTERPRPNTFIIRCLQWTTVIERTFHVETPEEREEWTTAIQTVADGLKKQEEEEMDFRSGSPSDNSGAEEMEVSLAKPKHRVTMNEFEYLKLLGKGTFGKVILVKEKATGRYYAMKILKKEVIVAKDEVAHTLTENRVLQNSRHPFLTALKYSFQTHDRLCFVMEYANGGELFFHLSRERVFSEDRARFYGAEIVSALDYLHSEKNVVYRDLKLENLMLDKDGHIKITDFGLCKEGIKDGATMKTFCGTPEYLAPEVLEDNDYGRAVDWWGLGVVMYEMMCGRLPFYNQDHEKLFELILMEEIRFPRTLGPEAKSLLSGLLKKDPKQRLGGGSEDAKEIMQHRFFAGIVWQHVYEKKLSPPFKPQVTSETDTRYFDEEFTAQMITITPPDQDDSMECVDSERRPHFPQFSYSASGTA
IC50 (Akt1) [µM],IC50 [1] [µM],IC50 [2] [µM],Compound
0.0007,2.51,1.44,"Cn1ncc(Cl)c1-c1sc(C(=O)N[C@@H]2CNCC[C@H]2c2cccc(F)c2)cc1Cl [Compound 139, 4-chloro-5-(4-chloro-1-methyl-1H-pyrazol-5-yl)-N-((3S, 4S)-4-(3-fluorophenyl)piperidin-3-yl)thiophene-2-formamide]"
0.001,1.1,6.67,"Cn1ncc(-c2ccncc2)c1-c1ccc(C(=O)N[C@@H]2CNCC[C@H]2c2cccc(F)c2)s1 [Compound 140, N-((3S, 4S)-4-(3-fluorophenyl)piperidin-3-yl)-5-(1-methyl-4-(pyridinyl-4-yl)-1H-pyrazol-5-yl)thiophene-2-formamide]"
0.012,6.56,1.05,"Cn1ncc(CO)c1-c1ccc(C(=O)N[C@@H]2CNCC[C@H]2c2cccc(F)c2)s1 [Compound 141, N-((3S, 4S)-4-(3-fluorophenyl)piperidin-3-yl)-5-(4-(hydroxylmethyl)-1-methyl-1H-pyrazol-5-yl)thiophene-2-formamide]"
0.002,3.09,1.62,Cn1ncc(C(=O)O)c1-c1ccc(C(=O)N[C@@H]2CNCC[C@H]2c2cccc(F)c2)s1 [Compound 142]
0.0007,0.08,0.04,"CC(O)c1cnn(C)c1-c1ccc(C(=O)N[C@@H]2CNCC[C@H]2c2cccc(F)c2)s1 (stereo partly drawn) [Compound 143, N-((3S, 4S)-4-(3-fluorophenyl)piperidin-3-yl)-5-(4-(1-hydroxyethyl)-1-methyl-1H-pyrazol-5-yl)thiophene-2-formamide]"
0.002,3.68,3.48,"C=Cc1cnn(C)c1-c1ccc(C(=O)N[C@@H]2CNCC[C@H]2c2cccc(F)c2)s1 [Compound 144, N-((3S, 4S)-4-(3-fluorophenyl)piperidin-3-yl)-5-(1-methyl-4-vinyl-1H-pyrazol-5-yl)thiophene-2-formamide]"
0.004,1.47,1.06,"CCc1cnn(C)c1-c1ccc(C(=O)N[C@@H]2CNCC[C@H]2c2cccc(F)c2)s1 [Compound 145, 5-(4-ethyl-1-methyl-1H-pyrazol-5-yl)-N-((3S, 4S)-4-(3-fluorophenyl)piperidin-3-yl)thiophene-2-formamide]"
0.007,0.44,4.19,"Cn1nccc1-c1ccc(C(=O)N[C@@H]2CNCC[C@H]2c2cccc(F)c2)s1 [Compound 146, N-((3S, 4S)-4-(3-fluorophenyl)piperidin-3-yl)-5-(1-methyl-1H-pyrazol-5-yl)thiophene-2-formamide]"
0.009,0.36,2.43,"Cn1ncc(Br)c1-c1ccc(C(=O)N[C@@H]2CNCC[C@H]2c2cccc(F)c2)s1 [Compound 147, 5-(4-bromo-1-methyl-1H-pyrazol-5-yl)-N-((3S,4S)-4-(3-fluorophenyl)piperidin-3-yl)thiophene-2-formamide]"
0.005,1.23,0.67,"Cn1ncc(-c2ccccc2)c1-c1ccc(C(=O)N[C@@H]2CNCC[C@H]2c2ccc(F)c(F)c2)s1 [Compound 148, N-((3S, 4S)-4-(3,4-difluorophenyl)piperidin-3-yl)-5-(1-methyl-4-phenyl-1H-pyrazol-5-yl)thiophene-2-formamide]"
0.007,2.56,3.21,"CNC(=O)CC1C[C@@H](c2cccc(F)c2)[C@H](NC(=O)c2cc(Cl)c(-c3c(Cl)cnn3C)s2)CN1 (stereo partly drawn) [Compound 149, 4-chloro-5-(4-chloro-1-methyl-1H-pyrazol-5-yl)-N-((3S, 4S)-4-(3-fluorophenyl)-6-(2-(methylamido)-2-oxoethyl)piperidin-3-yl)thiophene-2-formamide]"
0.003,4.43,1.19,"C[C@H]1CNC[C@@H](NC(=O)c2ccc(-c3c(Cl)cnn3C)s2)[C@@H]1c1cccc(F)c1 [Compound 150, 5-(4-chloro-1-methyl-1H-pyrazol-5-yl)-N-((3S, 4S, 5R)-4-(3-fluorophenyl)-5-methylpiperidin-3-yl)thiophene-2-formamide]"
0.001,2.5,1.52,"CCC[C@H]1CNC[C@@H](NC(=O)c2ccc(-c3c(Cl)cnn3C)s2)[C@@H]1c1cccc(F)c1 [Compound 151, 5-(4-chloro-1-methyl-1H-pyrazol-5-yl)-N-((3S, 4S, 5R)-4-(3-fluorophenyl)-5-propylpiperidin-3-yl)thiophene-2-formamide]"
0.0006,2.82,1.41,"CNC(=O)CC1C[C@@H](c2ccc(F)c(F)c2)[C@H](NC(=O)c2ccc(-c3c(Cl)cnn3C)s2)CN1 (stereo partly drawn) [Compound 152, 5-(4-chloro-1-methyl-1H-pyrazol-5-yl)-N-((3S,4S)-4-(3,4-difluorophenyl)-6-(2-(methylamido)-2-oxoethyl)piperidin-3-yl)thiophene-2-formamide]"
